In the supplement of paper PMC10307832:

How the values were obtained:
Experiment in all cases: relative viability (nuclei count vs DMSO), 5 days (fraction); higher = more cells survive
Carboplatin + Navitoclax = compound: C1CC(C1)(C(=O)O)C(=O)O.[NH2-].[NH2-].[Pt+2] [Carboplatin] + CC1(C)CCC(c2ccc(Cl)cc2)=C(CN2CCN(c3ccc(C(=O)NS(=O)(=O)c4ccc(N[C@H](CCN5CCOCC5)CSc5ccccc5)c(S(=O)(=O)C(F)(F)F)c4)cc3)CC2)C1 [Navitoclax] (partner 0.5 µM)
Outline: (§1)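 The day after seeding in 1536-well plates, lung cancer cell lines were treated by pin tool with a single drug, or with a fixed anchor-drug dose together with five library-drug doses (not always all listed) in √10 steps. After 5 days, a combined fix-and-stain solution (final 0.05% Triton X-100, 1% formaldehyde, 1 ug/ml Hoechst) was added. Nuclei counted on 4× images gave relative viability as treated counts over vehicle counts, reported as the median of duplicate plates.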

Carboplatin + Alpelisib = compound: C1CC(C1)(C(=O)O)C(=O)O.[NH2-].[NH2-].[Pt+2] [Carboplatin] + Cc1nc(NC(=O)N2CCC[C@H]2C(N)=O)sc1-c1ccnc(C(C)(C)C(F)(F)F)c1 [Alpelisib] (partner 2 µM)
Outline: as §1

GSK126 + Tozasertib = compound: CC[C@H](C)N1C=C(C2=C(C=C(C=C21)C3=CN=C(C=C3)N4CCNCC4)C(=O)NCC5=C(C=C(NC5=O)C)C)C [GSK126] + Cc1cc(Nc2cc(N3CCN(C)CC3)nc(Sc3ccc(NC(=O)C4CC4)cc3)n2)n[nH]1 [Tozasertib] (partner 0.1 µM)
Outline: as §1

MLN4924 + Bortezomib = compound: NS(=O)(=O)OC[C@@H]1C[C@@H](n2ccc3c(N[C@H]4CCc5ccccc54)ncnc32)C[C@@H]1O [MLN4924] + CC(C)C[C@H](NC(=O)[C@H](Cc1ccccc1)NC(=O)c1cnccn1)B(O)O [Bortezomib] (partner 0.002 µM)
Outline: as §1

With UMC-11 as the cell line, how does the relative viability (Carboplatin + Navitoclax; first compound 0.08 µM) read?
Its relative viability is 0.325.

And the relative viability (Carboplatin + Navitoclax; first compound 0.253 µM)?
Its relative viability is 0.355.

What about the relative viability (Carboplatin + Navitoclax; first compound 0.8 µM) of the same cell line?
The relative viability was 0.342.

And the relative viability (Carboplatin + Navitoclax; first compound 2.53 µM)?
Its relative viability is 0.313.

And the relative viability (Carboplatin + Navitoclax; first compound 8 µM)?
The relative viability was 0.256.

What about the relative viability (Carboplatin + Alpelisib; first compound 0.08 µM) of the same cell line?
Its relative viability is 1.

What about the relative viability (Carboplatin + Alpelisib; first compound 0.253 µM) of the same cell line?
Its relative viability is 0.96.

What about the relative viability (Carboplatin + Alpelisib; first compound 0.8 µM) of the same cell line?
The relative viability was 0.827.

And the relative viability (Carboplatin + Alpelisib; first compound 2.53 µM)?
Its relative viability is 0.955.

What about the relative viability (Carboplatin + Alpelisib; first compound 8 µM) of the same cell line?
The relative viability was 0.588.

And the relative viability (GSK126 + Tozasertib; first compound 0.08 µM)?
Its relative viability is 0.205.

What about the relative viability (GSK126 + Tozasertib; first compound 0.253 µM) of the same cell line?
The relative viability was 0.209.

And the relative viability (GSK126 + Tozasertib; first compound 0.8 µM)?
Its relative viability is 0.197.

And the relative viability (GSK126 + Tozasertib; first compound 2.53 µM)?
The relative viability was 0.188.

What about the relative viability (GSK126 + Tozasertib; first compound 8 µM) of the same cell line?
Its relative viability is 0.199.

What about the relative viability (MLN4924 + Bortezomib; first compound 0.04 µM) of the same cell line?
Its relative viability is 0.529.

And the relative viability (MLN4924 + Bortezomib; first compound 0.1265 µM)?
Its relative viability is 0.301.

And the relative viability (MLN4924 + Bortezomib; first compound 0.4 µM)?
The relative viability was 0.269.

What about the relative viability (MLN4924 + Bortezomib; first compound 1.265 µM) of the same cell line?
The relative viability was 0.1.

And the relative viability (MLN4924 + Bortezomib; first compound 4 µM)?
The relative viability was 0.0977.
